According to patent US9617304B2, “Pharmaceutical composition containing an endocytic motif and protein transduction domains for preventing or treating cancer” (Korea Research Institute Of Bioscience And Biotechnology, priority 2011, dated 2017):

B1: Tac/3S: fusion protein of Tac and 3S polypeptide (protein)
chain: ELCDDDPPEIPHATFKAMAYKEGTMLNCECKRGFRRIKSGSLYMLCTGNSSHSSWDNQCQCTSSATRNTTKQVTPQPEEQKERKTTEMQSPMQPVDQASLPGHCREPPPWENEATERIYHFVVGQMVYYQCVQGYRALHRGPAESVCKMTHGKTRWTQPQLICTGEMETSQFPGEEKPQASPEGRPESETSCLVTTTDFQIQTEMAATMETSIFTTEYQKCVAPYPSLLSSEDNA

Tests used:
Tac/3S chimeric protein = assay: Endocytosis of Tac/3S chimeric protein in COS-7 cells after pretreatment with inhibitors; assay type: cell-based; conditions: for endocytosis of Tac/3S chimeric protein: COS-7, 100 μg/ml ConA, 80 μM Dynasore, 1 μM Go6976, 1 μM K252a, 1 μM Vinblastine, 30 minutes pretreatment
Method: Each of plasmid DNAs encoding Tac chimeric proteins illustrated in FIG. 2 was expressed in COS-7 cell line to induce endocytosis. To quantify endocytosis percentage, the following method was used. First, plasmid DNA was transfected into COS-7 cell line, and next day, cells were suspended in DMED supplemented with 10% FBS, and seeded onto an 8-well slide glass (Thermo, 154534) to 50% confluency. Next day, to block endocytosis, cells were transferred at 4° C. and left for 30 minutes. Anti-Tac (BD BIOSCIENCES, 347640) antibody was diluted in DMEM supplemented with 10% FBS at a ratio of 1:10, and treated at 4° C. for 30 minutes. The cells were washed with medium three times. To induce endocytosis again, the cells were transferred at 5% CO2 and 37° C., and left for different time periods. The cells were fixed in 4% paraformaldehyde for 45 minutes at room temperature. To detect cell surface anti-Tac antibody, anti-mouse IgG-ALEXA FLUOR 488 (INVITROGEN, A-11001) was diluted with PBS containing 3% normal goat serum (Vector, S-1000) at a ratio of 1:500, and treated at room temperature for 1 hour. Then, the cells were washed with PBST for 5 minutes three times. For permeablization and blocking, the cells were treated with PBST containing 3% normal goat serum at room temperature for 1 hour. Next, to detect intracellular Tac, anti-mouse IgG-ALEXA FLUOR 568 (INVITROGEN, A11061) was diluted with PBST containing 3% normal goat serum at a ratio of 1:500, and treated at room temperature for 1 hour. The cells were washed with PBST three times, and mounted in Mounting Medium with DAPI (Vector, H-1200). Next day, the sample was examined by fluorescence microscopy (Olympus IX2-UCB). For treatment of inhibitors, 100 μg/ml ConA (SIGMA, C0412), 80 μM Dynasore (SIGMA, D7693), 1 μM Go6976 (CALBIOCHEM, 365250), 1 μM K252a (INVITROGEN, PHZ1131) and 1 μM Vinblastine (SIGMA, V1377) were pretreated at 5% CO2 and 37° C. for 30 minutes, before endocytosis assay.

COS-7 cells = assay: Endocytosis of Tac chimeric proteins expressed in COS-7 cells, fluorescence microscopy; assay type: cell-based
Method: To quantify endocytosis percentage, the following method was used. First, plasmid DNA was transfected into COS-7 cell line, and next day, cells were suspended in DMED supplemented with 10% FBS, and seeded onto an 8-well slide glass (Thermo, 154534) to 50% confluency. Next day, to block endocytosis, cells were transferred at 4° C. and left for 30 minutes. Anti-Tac (BD BIOSCIENCES, 347640) antibody was diluted in DMEM supplemented with 10% FBS at a ratio of 1:10, and treated at 4° C. for 30 minutes. The cells were washed with medium three times. To induce endocytosis again, the cells were transferred at 5% CO2 and 37° C., and left for different time periods. The cells were fixed in 4% paraformaldehyde for 45 minutes at room temperature. […] Next day, the sample was examined by fluorescence microscopy (Olympus IX2-UCB). […] To quantify endocytosis of Tac chimeric proteins expressed in COS-7 cells over time, the following Equation was used. […] As such, green fluorescence intensity indicates the amount of cell surface Tac, and red fluorescence intensity signifies those of endocytosed Tac plus partial cell surface Tac. […] Partially detected surface Tac by anti-mouse IgG-ALEXA FLUOR 568 was measured by comparing fluorescence intensity between green and red at 0 min in which no endocytosis occurred. Red fluorescence intensity was 0.429-fold or green fluorescence intensity at 0 min, which was defined as α. […]

Molecule | endocytosis of Tac/3S chimeric protein (Tac/3S chimeric protein) | transportation of Tac/3S protein to the perinuclear region (Tac/3S chimeric protein; COS-7, 1 μM Vinblastine) | subcellular localization (colocalization test) (COS-7 cells)
Cn1c2ccccc2c2c3c(c4c5ccccc5n(CCC#N)c4c21)CNC3=O [Go6976] | inhibited |  | 
O=C(N/N=C/c1ccc(O)c(O)c1)c1cc2ccccc2cc1O [Dynasore] | inhibited |  | 
CC[C@]1(O)C[C@@H]2CN(CCc3c([nH]c4ccccc34)[C@@](C(=O)OC)(c3cc4c(cc3OC)N(C)[C@H]3[C@@](O)(C(=O)OC)[C@H](OC(C)=O)[C@]5(CC)C=CCN6CC[C@]43[C@@H]65)C2)C1 [Vinblastine] | not inhibited | blocked | 
Concannavalin A [ConA] | inhibited |  | 
COC(=O)[C@@]1(O)C[C@H]2O[C@]1(C)n1c3ccccc3c3c4c(c5c6ccccc6n2c5c31)C(=O)NC4 [K252a] | not inhibited |  | 
B1 |  |  | partially merged with ER tracker
